From patent US20140296337A1, “CNS MODULATORS” (BTG International Limited, priority 2004, published 2014)

Key:
[1] = test system: electrical power of four rat brain areas (frontal cortex, hippocampus, striatum, reticular formation); experiment: Tele-Stereo-EEG: continuous recording of intracerebral field potentials in the freely moving rat; type: in vivo
Source text: Analysis of brain field potentials (“Tele-Stereo-EEG”) has been proven to be a very sensitive tool for the characterization of drug effects on the central nervous system (Dimpfel et al., 1986). After administration of a centrally active drug, quantitative changes in the brain field potentials can be considered as a characteristic fingerprint of that particular drug. “Fingerprints” of more than 100 compounds have been obtained including 8 established drug categories, e.g. analgesics, antidepressants, neuroleptics, stimulants, tranquilizers, sedatives and narcotics. Different dosages of the same drug cause quantitative changes in electrical power. […] Direct comparison with specific reference drugs, or by discriminant analysis with reference to an extensive fingerprint database, permits the detection of any possible similarities with established drugs. In general, “fingerprints” show prominent differences for drugs prescribed for different indications and are similar for drugs with similar indication (Dimpfel 2003). Furthermore, the pattern of EEG changes in the rat is a useful tool in predicting possible changes in the EEG power spectrum in humans.
Five intraperitoneal doses (30 mg/kg, 100 mg/kg, 300 mg/kg, 600 mg/kg and 1000 mg/kg body weight) of sodium (R)-3-hydroxybutyrate (BHB) were investigated using the “Tele-Stereo-EEG” animal model consisting of continuous recording of intracerebral field potentials in the freely moving rat. No effects could be measured using 1 ml/kg of a solution containing 20 mM of Na-bicarbonate (pH 8.4 or pH 12.5) for control purposes. […] Most marked changes were observed within the alpha2 range.
Adult Fisher rats (4-6 month of age and day—night converted, weight about 400 g) were implanted with 4 bipolar concentric steel electrodes using a stereotactic surgical procedure (Paxinos and Watson, 1982). All four electrodes were placed 3 mm lateral within the left hemisphere. Anterior coordinates were 12.2, 5.7, 9.7 and 3.7 mm for frontal cortex, hippocampus, striatum and reticular formation, respectively. A baseplate carrying the electrodes and a 5-pin-plug was fixed to the skull by dental cement attached to 3 steel screws fixed into the skull. Animals were given two weeks for recovery from the surgical procedure. Experiments were performed in compliance with the German Health Authority Guidelines and with local authority approval. EEG signals were recorded from frontal cortex, hippocampus, striatum and reticular formation and were amplified and processed as described previously (see Dimpfel et al., 1986). After automatic artefact rejection, signals were collected in sweeps of 4 s duration and submitted to Fast Fourier transformation. The resulting electrical power spectra were divided into 6 frequency ranges: delta (0.8-4.5 Hz); theta (4.75-6.75 Hz); alpha1 (7.00-9.50 Hz); alpha2 (9.75-12.50 Hz); beta (12.75-18.50 Hz); beta2 (18.75-35.00 Hz). […] In an off-line procedure spectra were averaged to give 15 minute or longer periods for further statistical analysis.
Five dosages of BHB (30, 100, 300, 600 and 1000 mg/kg body weight) (supplied by Solvias AG, CH 4002 Basel, Switzerland, batch No: SO-1058.047.1.120) and a vehicle control (0.9% w/v saline) were administered intraperitoneously to a group of 12 animals using a crossover design with at least 3 drug holidays in between the applications. Additional controls consisted of a 1 ml/kg of a solution containing 20 mM of Na-bicarbonate (adjusted to 8.4 and pH 12.5 obtained by titration with 1N NaOH) were tested to ascertain possible effects due to the alkaline pH of the BHB solution. After a pre-drug period of 45 minutes for baseline recording, drug effects were observed continuously for 300 minutes. Changes of electrical power (μV2W) are expressed as % of the 45 min. pre-drug values. Multivariate statistics were calculated according to Ahrens and Lauter (1974).

[2] = test system: EEG frequency bands (delta, theta activity); details: cited from earlier work
[3] = BHB 100 mg/kg i.p. single dose, rat
[4] = BHB 300 mg/kg i.p. single dose, rat

Compound: C[C@@H](O)CC(=O)[O-].[Na+] [BHB, sodium (R)-3-hydroxybutyrate]
- discriminant analysis of EEG fingerprint (24 variables) ([1]; 6 frequency ranges, 4 brain areas, one time period): close proximity to paroxetine and tramadol
- effects on EEG frequencies relative to the saline control ([1]; BHB 30 mg/kg body weight i.p. single dose, rat): no statistically significant effects
- duration of EEG effects [1, 3]: 1 to 2 h
- statistical significance of EEG changes [1, 3]: not statistically significant
- EEG frequency changes (electrical power, % of pre-drug values) ([1]; BHB 100 mg/kg i.p. single dose, rat, all regions, mainly alpha2, less delta): decrease of electrical power
- EEG frequency changes (electrical power, % of pre-drug values) [1, 4]: decreases in alpha2 power throughout all brain regions
- duration of pattern of EEG changes [1, 4]: two
- statistical significance of EEG changes ([1]; BHB 300 mg/kg i.p. single dose, rat, by brain region): statistically significant for the frontal cortex, hippocampus and reticular formation, but not for the striatum
- duration of EEG effects ([1]; BHB 600 mg/kg i.p. single dose, rat, generally, except reticular formation): 2 h
- statistical significance of EEG changes ([1]; BHB 600 mg/kg i.p. single dose, rat, including first hour within striatum): statistically highly significant
- duration of decreases of power in the reticular formation ([1]; BHB 600 mg/kg i.p. single dose, rat): persisted throughout the third hour
- EEG frequency changes (electrical power, % of pre-drug values) ([1]; BHB 1000 mg/kg i.p. single dose, rat): more prominent decreases of power lasting into the third hour
- statistical significance of EEG changes ([1]; BHB 1000 mg/kg i.p. single dose, rat, even 5th hour within reticular formation): statistically highly significant
- duration of decreases of power in the reticular formation ([1]; BHB 1000 mg/kg i.p. single dose, rat, total experimental time): 5 h
- similarity of EEG electrical fingerprint to reference drugs ([1]; BHB at a lower dosage, vs galanthamine 3 mg/kg and paroxetine 2 mg/kg): similarity to the “electrical fingerprints” of the acetylcholine esterase inhibitor galanthamine and also the antidepressant paroxetine
- statistical significance of EEG changes ([1]; BHB dose levels of 300-1000 mg/kg i.p., rat): statistically highly significant
- similarity of EEG profile to reference drugs ([1]; higher dosages of BHB, vs tramadol 10 mg/kg): reminiscent of the effects as observed after the administration of tramadol

Compound: Clc1cccc(Cl)c1N=C1NCCN1 [clonidine]
- change of theta activity ([2]; drug down regulating the norepinephrine system (presynaptic adrenergic alpha2 receptor)): increases

Compound: CN1[C@@H]2C[C@@H](OC(=O)[C@H](CO)c3ccccc3)C[C@H]1[C@@H]1O[C@@H]12 [scopolamine]
- change of delta activity ([2]; drugs affecting the cholinergic system): increase of power
